Measurements taken from patent US9833497B2, “Human originated EGF domain proteins and use of the same” (CHENGDU SOURCEBIO LIMITED-LIABILITY COMPANY, priority 2013, dated 2017).

Assays:
Format in all cases: cell-based
[1] = test system: E. coli DH5α; test: Antibacterial activity: MIC and growth curve against E. coli DH5α in 96-well plate; conditions: minimal inhibitory concentration against E. coli DH5α; 96-well plate, 5×10^5 CFU/mL, 37° C., judged after 8 h
Summary of the method: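 Log-phase bacteria (OD600 ~0.5) resuspended in LB at 5×10^5 CFU/mL, exposed to recombinant protein at 50, 25, 12.5 μg/mL final in triplicate, 37 °C shaking at 175 rpm. OD600 read every 30 min; MIC is lowest concentration showing no growth.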

[2] = test system: E. coli BL21; test: MIC against Gram-negative bacteria: E. coli BL21
Summary of the method: (§1)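 Read-out is absence of bacterial growth, with MIC set at the lowest recombinant protein concentration achieving it. Bacteria, pre-grown in LB to McFarland 0.5 and resuspended, were exposed at 5×10^5 CFU/mL to two-fold diluted human EGF domain proteins in triplicate at 37° C, 175 rpm.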

[3] = test system: Pseudomonas aeruginosa; test: MIC against Gram-negative bacteria: Pseudomonas aeruginosa
Summary of the method: as §1

[4] = test system: Klebsiella pneumonia; test: MIC against Gram-negative bacteria: Klebsiella pneumonia
Summary of the method: as §1

[5] = test system: Enterobacter cloacae; test: MIC against Gram-negative bacteria: Enterobacter cloacae
Summary of the method: as §1

[6] = test system: Aeromonas hydrophila; test: MIC against Gram-negative bacteria: Aeromonas hydrophila
Summary of the method: as §1

[7] = test system: Citrobacter diversus; test: MIC against Gram-negative bacteria: Citrobacter diversus
Summary of the method: as §1

[8] = test system: Moraxella catarrhalis; test: MIC against Gram-negative bacteria: Moraxella catarrhalis
Summary of the method: as §1

[9] = test system: Proteus mirabilis; test: MIC against Gram-negative bacteria: Proteus mirabilis
Summary of the method: as §1

[10] = test system: Proteus vulgaris; test: MIC against Gram-negative bacteria: Proteus vulgaris
Summary of the method: as §1

[11] = test system: Serratia marcescens; test: MIC against Gram-negative bacteria: Serratia marcescens
Summary of the method: as §1

[12] = 96-well plate, 5×10^5 CFU/mL, 37° C., 10 h

PRT638 (DVNECELLSGVCGEAFCENVEGSFLCVCADENQEYSPMTGQCR; listed as Homo sapiens)
MIC [1]: 25 µg/mL | MIC E. coli BL21 [2, 12]: 12.5 µg/mL | MIC P. aeruginosa [3, 12]: 50 µg/mL | MIC K. pneumonia [4, 12]: 12.5 µg/mL | MIC E. cloacae [5, 12]: 25 µg/mL | MIC A. hydrophila [6, 12]: 50 µg/mL | MIC C. diversus [7, 12]: 25 µg/mL | MIC M. catarrhalis [8, 12]: 12.5 µg/mL | MIC P. mirabilis [9, 12]: 50 µg/mL | MIC P. vulgaris [10, 12]: 12.5 µg/mL | MIC S. marcescens [11, 12]: 50 µg/mL

PRT1031 (MCVTYHNGTGYCKCPEGFLGEYCQ; listed as Homo sapiens)
MIC [1]: 12.5 µg/mL | MIC ([2]; E. coli BL21, 10 h cultivation at 37° C.): 50 µg/mL | MIC ([3]; P. aeruginosa, 10 h cultivation at 37° C.): 12.5 µg/mL | MIC ([4]; K. pneumonia, 10 h cultivation at 37° C.): 50 µg/mL | MIC ([5]; E. cloacae, 10 h cultivation at 37° C.): 12.5 µg/mL | MIC ([6]; A. hydrophila, 10 h cultivation at 37° C.): 50 µg/mL | MIC ([7]; C. diversus, 10 h cultivation at 37° C.): 25 µg/mL | MIC ([8]; M. catarrhalis, 10 h cultivation at 37° C.): 12.5 µg/mL | MIC ([9]; P. mirabilis, 10 h cultivation at 37° C.): 12.5 µg/mL | MIC ([10]; P. vulgaris, 10 h cultivation at 37° C.): 50 µg/mL | MIC ([11]; S. marcescens, 10 h cultivation at 37° C.): 12.5 µg/mL

PRT483 (DCRAVYDRYSDDFCSGHGQCNCGRCDCKAGWYGKKCE; listed as Homo sapiens)
MIC [1]: 12.5 µg/mL | MIC against E. coli BL21 [2, 12]: 25 µg/mL | MIC against P. aeruginosa [3, 12]: 50 µg/mL | MIC against K. pneumonia [4, 12]: 25 µg/mL | MIC against E. cloacae [5, 12]: 12.5 µg/mL | MIC against A. hydrophila [6, 12]: 25 µg/mL | MIC against C. diversus [7, 12]: 50 µg/mL | MIC against M. catarrhalis [8, 12]: 25 µg/mL | MIC against P. mirabilis [9, 12]: 12.5 µg/mL | MIC against P. vulgaris [10, 12]: 25 µg/mL | MIC against S. marcescens [11, 12]: 50 µg/mL

PRT257 (CTDGHRGGCSEHANCLSTGLNTRRCECHAGYVGDGLQC; listed as Homo sapiens)
MIC [1]: 12.5 µg/mL | MIC (μg/mL) E. coli BL21 ([2]; E. coli BL21, 10 h cultivation at 37° C., 5×10^5 CFU/mL): 25 µg/mL | MIC (μg/mL) P. aeruginosa ([3]; P. aeruginosa, 10 h cultivation at 37° C., 5×10^5 CFU/mL): 12.5 µg/mL | MIC (μg/mL) K. pneumonia ([4]; K. pneumonia, 10 h cultivation at 37° C., 5×10^5 CFU/mL): 25 µg/mL | MIC (μg/mL) E. cloacae ([5]; E. cloacae, 10 h cultivation at 37° C., 5×10^5 CFU/mL): 12.5 µg/mL | MIC (μg/mL) A. hydrophila ([6]; A. hydrophila, 10 h cultivation at 37° C., 5×10^5 CFU/mL): 25 µg/mL | MIC (μg/mL) C. diversus ([7]; C. diversus, 10 h cultivation at 37° C., 5×10^5 CFU/mL): 12.5 µg/mL | MIC (μg/mL) M. catarrhalis ([8]; M. catarrhalis, 10 h cultivation at 37° C., 5×10^5 CFU/mL): 25 µg/mL | MIC (μg/mL) P. mirabilis ([9]; P. mirabilis, 10 h cultivation at 37° C., 5×10^5 CFU/mL): 12.5 µg/mL | MIC (μg/mL) P. vulgaris ([10]; P. vulgaris, 10 h cultivation at 37° C., 5×10^5 CFU/mL): 12.5 µg/mL | MIC (μg/mL) S. marcescens ([11]; S. marcescens, 10 h cultivation at 37° C., 5×10^5 CFU/mL): 12.5 µg/mL

PRT1302 (QTSPCDQYECQNGAQCIVVQQEPTCRCPPGFAGPRCE; listed as Homo sapiens)
MIC [1]: 12.5 µg/mL | MIC against E. coli BL21 ([2]; E. coli BL21, 96-well plate, 5×10^5 CFU/mL, 37° C., 10 h): 50 µg/mL | MIC against P. aeruginosa ([3]; Pseudomonas aeruginosa, 96-well plate, 5×10^5 CFU/mL, 37° C., 10 h): 12.5 µg/mL | MIC against K. pneumonia ([4]; Klebsiella pneumonia, 96-well plate, 5×10^5 CFU/mL, 37° C., 10 h): 50 µg/mL | MIC against E. cloacae ([5]; Enterobacter cloacae, 96-well plate, 5×10^5 CFU/mL, 37° C., 10 h): 25 µg/mL | MIC against A. hydrophila ([6]; Aeromonas hydrophila, 96-well plate, 5×10^5 CFU/mL, 37° C., 10 h): 12.5 µg/mL | MIC against C. diversus ([7]; Citrobacter diversus, 96-well plate, 5×10^5 CFU/mL, 37° C., 10 h): 50 µg/mL | MIC against M. catarrhalis ([8]; Moraxella catarrhalis, 96-well plate, 5×10^5 CFU/mL, 37° C., 10 h): 12.5 µg/mL | MIC against P. mirabilis ([9]; Proteus mirabilis, 96-well plate, 5×10^5 CFU/mL, 37° C., 10 h): 25 µg/mL | MIC against P. vulgaris ([10]; Proteus vulgaris, 96-well plate, 5×10^5 CFU/mL, 37° C., 10 h): 50 µg/mL | MIC against S. marcescens ([11]; Serratia marcescens, 96-well plate, 5×10^5 CFU/mL, 37° C., 10 h): 25 µg/mL

PRT1478 (GGSPCISQPCLHNGSCQDSIWGYTCTCSPGYEGSNCE; listed as Homo sapiens)
MIC [1]: 50 µg/mL | MIC against E. coli BL21 ([2]; E. coli BL21, 5×10^5 CFU/mL, 10 h cultivation at 37° C.): 12.5 µg/mL | MIC against P. aeruginosa ([3]; Pseudomonas aeruginosa, 5×10^5 CFU/mL, 10 h cultivation at 37° C.): 50 µg/mL | MIC against K. pneumonia ([4]; Klebsiella pneumonia, 5×10^5 CFU/mL, 10 h cultivation at 37° C.): 25 µg/mL | MIC against E. cloacae ([5]; Enterobacter cloacae, 5×10^5 CFU/mL, 10 h cultivation at 37° C.): 12.5 µg/mL | MIC against A. hydrophila ([6]; Aeromonas hydrophila, 5×10^5 CFU/mL, 10 h cultivation at 37° C.): 50 µg/mL | MIC against C. diversus ([7]; Citrobacter diversus, 5×10^5 CFU/mL, 10 h cultivation at 37° C.): 12.5 µg/mL | MIC against M. catarrhalis ([8]; Moraxella catarrhalis, 5×10^5 CFU/mL, 10 h cultivation at 37° C.): 25 µg/mL | MIC against P. mirabilis ([9]; Proteus mirabilis, 5×10^5 CFU/mL, 10 h cultivation at 37° C.): 50 µg/mL | MIC against P. vulgaris ([10]; Proteus vulgaris, 5×10^5 CFU/mL, 10 h cultivation at 37° C.): 25 µg/mL | MIC against S. marcescens ([11]; Serratia marcescens, 5×10^5 CFU/mL, 10 h cultivation at 37° C.): 12.5 µg/mL
